Data on four molecules can be found in ChEMBL document CHEMBL3887000, “Inhibitors of the renal outer medullary potassium channel” (2016).

In test [1] the target is T1, ATP-sensitive inward rectifier potassium channel 1 (Homo sapiens, UniProt P48048).
T1 sequence (P48048 whole entry): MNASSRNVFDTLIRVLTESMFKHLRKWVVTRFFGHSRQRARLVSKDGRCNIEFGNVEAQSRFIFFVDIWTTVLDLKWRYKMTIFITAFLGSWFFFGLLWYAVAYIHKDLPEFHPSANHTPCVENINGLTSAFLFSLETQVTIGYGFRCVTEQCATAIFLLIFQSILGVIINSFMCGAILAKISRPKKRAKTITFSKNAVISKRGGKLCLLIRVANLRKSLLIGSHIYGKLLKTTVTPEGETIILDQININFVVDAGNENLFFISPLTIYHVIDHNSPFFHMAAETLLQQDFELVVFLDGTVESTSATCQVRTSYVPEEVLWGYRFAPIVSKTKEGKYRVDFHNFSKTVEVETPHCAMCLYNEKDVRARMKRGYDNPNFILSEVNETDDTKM
Nature of the test: Thallium Flux Assay: The ROMK channel functional thallium flux assay is performed in 384 wells, using the FLIPR-Tetra instrument. HEK-hKir1.1 cells are seeded in Poly-D-Lysine microplates and kept in a 37° C.-10% CO2 incubator overnight. On the day of the experiment, the growth media is replaced with the FluxOR reagent loading buffer and incubated, protected from light, at ambient temperature (23-25° C.) for 90 min. The loading buffer is replaced with assay buffer test compound followed by 30 min incubation at ambient temperature, where the Thallium/Potassium stimulant is added to the microplate. Step Protocol 1. Seed HEK-hKir1.1 cells (50 ul at 20,000 cells/well) in 384-well PDL coated Microplates 2. Allow cells to adhere overnight in humidified 37° C./10% CO2 incubator 3. Completely remove cell growth media from microplate and replace with 25 ul loading buffer 4. Incubate Microplate at room temperature, protected form light, for 90 min 5. Remove loading buffer and replace with 25 ul 1x Assay Buffer±test compound.Â 6. Incubate microplate at room temperature, protected form light, for 30 min 7. At FLIPR-Tetra 384: Add stimulant (Thallium/Potassium) solution to microplate and monitor fluorescence. Excitation=400 nm, Emission=460 & 580 nm. Collect data for 10 min.Â Data Calculation: The fluorescence intensity of wells containing 3 uM of a standard control ROMK inhibitor of the present invention is used to define the ROMK-sensitive component of thallium flux. Fluorescence in the presence of test compounds is normalized to control values to provide % fluorescence change.

The target in test [2] is T1, ATP-sensitive inward rectifier potassium channel 1. The experiment in a line: Electrophysiology Assay: Block of Kir1.1 (ROMK1) currents was examined by whole cell voltage clamp (Hamill et. al. Pfluegers Archives 391:85-100 (1981)) using the IonWorks Quattro automated electrophysiology platform (Molecular Devices, Sunnyvale, Calif.). Chinese hamster ovary cells stably expressing Kir1.1 channels were maintained in T-75 flasks in cell culture media in a humidified 10% CO2 incubator at 37° C. Prior to an experiment, Kir1.1 expression was induced by overnight incubation with 1 mM sodium butyrate. On the day of the experiment, cells were dissociated with 2.5 ml of Versene (Invitrogen 15040-066) for approximately 6 minutes at 37° C. and suspended in 10 ml of bath solution containing (in mM): 150 NaCl, 10 KCl, 2.7 CaCl2, 0.5 MgCl2, 5 HEPES, pH 7.4. After centrifugation, the cell pellet was resuspended in approximately 4.0 ml of bath solution and placed in the IonWorks instrument. The intracellular solution consisted of (in mM): 80 K gluconate, 40 KCl, 20 KF, 3.2 MgCl2, 3 EGTA, 5 Hepes, pH 7.4. Electrical access to the cytoplasm was achieved by perforation in 0.13 mg/ml amphotericin B for 4 minutes. Amphotericin B (Sigma A-4888) was prepared as a 40 mg/ml solution in DMSO. The test is classed as cell-based.

As to `Cc1c([C@@H](O)CN2CCC3(CCCN3C[C@H](O)c3ccc4c(c3C)COC4=O)C2)ccc2c1COC2=O` (stereo partly specified), the results for the IC50 in test [1] and in test [2] were 91 nM and 11 nM, respectively.

`Cc1c([C@@H](O)CN2CCC3(CC2)CCN(C[C@H](O)c2ccc4c(c2C)COC4=O)C3)ccc2c1COC2=O`: the IC50 in test [1] was 1210 nM.

Consider `Cc1c([C@@H](O)CN2C(C)CC3CN(CC(O)c4ccc(C#N)cn4)CC32)ccc2c1COC2=O` (single isomer, unassigned), for which, in test [2], the IC50 was determined as 39 nM.

Take `Cc1c([C@@H](O)CN2CCC3CN(S(=O)(=O)c4ccc(C#N)cc4)CC32)ccc2c1COC2=O` (single isomer, unassigned): the IC50 was 402 nM in test [1] and 62 nM in test [2].
